The source of these data is publication PMC6443933, “Antagonizing Retinoic Acid-Related-Orphan Receptor Gamma Activity Blocks the T Helper 17/Interleukin-17 Pathway Leading to Attenuated Pro-inflammatory Human Keratinocyte and Skin Responses” (Frontiers in Immunology, 2019).

Assay [1] relates to CD4+ CD25 high gated PBMCs. Description: FoxP3 expression in CD4+ CD25 high T-cells under Treg inducing conditions. The assay is classed as cell-based, human. Particulars: 96 h Treg inducing conditions, vs DMSO. As to the method:
PBMCs from freshly drawn heparinized blood originating from healthy volunteers were isolated by density gradient centrifugation using Ficoll Paque (GE). PBMCs (1 × 10^5/well) were incubated for 96 h in the presence of DMSO or Cpd A (1 μM) together with anti-CD3 (3 ng/ml, clone OKT-3, BioXcell), anti-CD28 (30 ng/ml, clone CD28.2, BioLegend), TGF-β1 (0.2 ng/ml, Biolegend), IL-2 (15 ng/ml, Biolegend), anti-IFN-γ antibody (5 μg/ml, Biolegend), and anti-IL-4 (5 μg/ml, Biolegend). Cells were prepared for CD4/CD25 surface staining, followed by intracellular FoxP3 staining.
For FoxP3 detection within the CD4^+ CD25 high T-cells, surface staining was performed for 20 min with FITC labeled CD4 antibody and anti-CD25 BV421 antibody (BD Bioscience). After surface staining, the cells were washed, fixed and permeabilized according to the manufacturer's instructions (eBioscience) prior to intracellular staining with APC labeled FoxP3 antibody (eBioscience). Data were acquired on a LSR Fortessa (BD Bioscience) and analyzed using FlowJo software (Tree Star). FoxP3 expression was determined in gated CD4^+ CD25 high T-cells that were treated with DMSO or with Cpd A.

The test system of assay [2] is total CD4+ T-cells. Nature of the assay: Th0, Th1, Th2 polarization, signature cytokine ELISA. Type of assay: cell-based, human. The procedure:
Total, naive and memory CD4^+ T cells were isolated from Peripheral blood mononuclear cells (PBMCs) from healthy volunteers by density gradient centrifugation using Ficoll Paque (GE). Total, naive or memory CD4^+ T-cells were prepared by immunomagnetic separation using the respective CD4^+ T-cell enrichment kits resulting in untouched highly purified subsets (EasySep™, Stem Cell). Purity was assessed by flow cytometry and was between 95 and 98% for the total CD4^+ T-cells. The purity of naive (CD45RA^+CD45RO^−) and memory (CD45RA^−CD45RO^+) CD4^+T-cells ranged between 95 and 98%, respectively. For T-cell stimulation experiments, cells were treated as previously published ([44]). Briefly, T-cells were stimulated with plate-bound monoclonal antibodies against CD3 (1 μg/ml, clone OKT-3, BioXcell) and CD28 (1 μg/ml, clone CD28.2, BioLegend). For Th17 polarization assays, IL-6 (20 ng/ml), TGF-β1 (5 ng/ml), IL-1β (10 ng/ml), and IL-23 (10 ng/ml) were added. For Th1 polarization assays, IL-12 (10 ng/ml) and anti-IL-4 antibody (5 μg/ml), for Th2 polarizations, IL-4 (10 ng/ml) and anti-IFN-γ antibody (5 μg/ml) were added. For Th0 polarization assays, cells were only stimulated with CD3 and CD28 antibodies. Supernatants were collected after 3 or 7 days of incubation for total or naive/memory CD4^+ T-cell polarizations, respectively. Cytokine concentrations were quantified by ELISA according to the manufacturer's instructions (eBioscience or BioLegend).
A general note: An ELISA detects its analyte on a solid surface through an enzyme-linked reagent.

The target in assay [3] is T1, full-length RORγt (Homo sapiens, UniProt P51449).
T1 construct: HUT78 T-cells stably expressing full-length eGFP-RORγt; eGFP; expressed in transfected cells
T1 sequence (P51449 1-497 isoform P51449-2): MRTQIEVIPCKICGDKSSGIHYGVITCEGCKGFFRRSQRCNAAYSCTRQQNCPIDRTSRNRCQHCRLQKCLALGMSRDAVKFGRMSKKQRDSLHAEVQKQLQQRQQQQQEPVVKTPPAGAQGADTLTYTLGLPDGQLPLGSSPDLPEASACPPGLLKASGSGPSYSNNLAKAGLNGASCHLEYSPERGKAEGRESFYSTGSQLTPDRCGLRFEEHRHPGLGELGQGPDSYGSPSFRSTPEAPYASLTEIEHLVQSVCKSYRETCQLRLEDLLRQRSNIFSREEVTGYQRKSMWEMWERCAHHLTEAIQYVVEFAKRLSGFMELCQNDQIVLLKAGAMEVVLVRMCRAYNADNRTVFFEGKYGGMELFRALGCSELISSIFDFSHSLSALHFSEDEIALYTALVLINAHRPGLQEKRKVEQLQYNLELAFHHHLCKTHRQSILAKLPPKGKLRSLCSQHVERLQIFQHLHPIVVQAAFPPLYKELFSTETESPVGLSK
Nature of the assay: 4 x RORE luciferase reporter assay in HUT78 T-cells expressing full-length RORγt. Type of assay: cell-based. Particulars: CD3 antibody plus PMA, 48 h, read-out: IC50, 4 x RORE-driven luciferase activity. The text has this: HUT78 T-cells stably expressing full-length eGFP-RORγt or eGFP-empty vector were generated as described before ([45]). Cells were transfected with plasmids containing 4 × ROREs inserted into the pGL4.17 luciferase Firefly reporter plasmid (kindly provided by Dr. Juergen Reinhardt, Novartis). As a control construct, a mutated or a non-functional form of 4 × RORE (Mut-RORE), was transfected in eGFP-RORγt HUT78 T-cells. The plasmids contained the following sequences where the bold nucleotides represent the putative RORγt binding site or the mutated form of the RORE:
Two days after transfection, cells were incubated in X-vivo 15 medium containing 10% FCS and 700 μg/ml Geneticin (Corning) and stable clones expressing the 4 × ROREs or mutated-ROREs were obtained by limiting dilution. The luciferase expression of the individual cell clones was measured using Luciferase detection buffer (Perkin Elmer) and the RORC mRNA expression of the selected clones were quantified by qRT-PCR. […]

For orientation: IC50 means the concentration at which inhibition is half-maximal. Take `Cc1ccc(C(=O)Nc2cn3ccnc3c(CN3CCN(c4noc(C(C)(C)C)n4)[C@@H](C)C3)c2C)cn1` [Cpd A, (S)-N-(8-((4-(5-(tert-butyl)-1,2,4-oxadiazol-3-yl)-3-methylpiperazin-1-yl)methyl)-7-methylimidazo[1,2-a]pyridin-6-yl)-6-methylnicotinamide]: the FoxP3 expression result in assay [1] was “did not result in altered FoxP3 expression”. Also, in assay [2] (IL-4 and anti-IFN-γ antibody), the “Th2 signature cytokine production (IL-13)” value is “did not have any impact”. Also, in assay [2] (IL-12 and anti-IL-4 antibody), the “Th1 signature cytokine production (IFN-γ)” value is “did not have any impact”. The “Th0 signature cytokine production (IL-2)” value in assay [2] (anti-CD3 plus anti-CD28 only) was “did not have any impact”. Further, the half-maximal inhibitory concentration (IC50) in assay [3] was 64 nM.
